{"source": "patent US20260364072A1", "about": "“METHODS FOR PROMOTING EXPANSION OF HUMAN CD34+ CELLS IN VIVO AND FOR PROMOTING NEURAL REGENERATION” (THE REGENTS OF THE UNIVERSITY OF CALIFORNIA, priority 2023, published 2026)", "key": {"[1]": {"system": "MF HPC", "assay": "Viability of high-risk MF CD34+ cells by flow cytometry", "type": "cell-based, human", "settings": "72 hr, compared with vehicle controls", "protocol": "(FIG. 28B) Flow cytometry-based viable cell counts (5,000 events measured) in high-risk MF samples after in vitro treatment of primary CD34^+ cells with vehicle control (DMSO) or Rebecsinib (72 hr).\nHuman HS5 and HS27a^45 or mouse bone marrow cells lines SL (hSCF and hIL3) and M2 (hIL3 and hG-CSF) were irradiated and then mixed at a ratio of 1:1 and incubated overnight for attachment. CD34^+ were selected from high-risk MF and sAML primary samples using magnetic beads (Miltenyi Biotec, Germany). As a control, CD34^+ cells from aged normal bone marrow (aNBM), young normal BM (yNBM) and cord blood (All Cells Inc, Alameda, CA) mononuclear cells were utilized. To establish co-cultures, 10,000-15,000 CD34^+ cells were added to SLM2 stroma in 1 ml of MYELOCULT H5100™ (STEMCELL Technologies, Vancouver, Canada). Rebecsinib or DMSO control were added at the initiation of co-culture at indicated concentrations. After one week, cells that were both attached to stroma and floating were collected, resuspended in fresh media and plated in methylcellulose (MC) H4330™ (STEMCELL Technologies) in triplicate. After 2 weeks primary colonies (more than 40 cells) were counted and individual multilineage colonies were plucked, cells resuspended and re-plated again in fresh MC. Secondary colonies were counted after another 14 days. […]"}, "[2]": {"system": "sAML LSC", "assay": "Serial transplantation assays of sAML LSC", "type": "in vivo, human cells in mice", "protocol": "To test this, we performed serial transplantation assays of cells harvested from sAML50261 LSC engrafted mice that were treated intravenously twice weekly for two weeks with Rebecsinib at 10 mg/kg (serial transplant recipients received no further treatment). […] Thus, reductions in ADAR1p150-mediated RNA editing activity following Rebecsinib treatment correspond with a reversion to a healthy splice isoform expression profile^14 in engrafted human progenitors.\nIn humanized mouse models, sAML cells (CD34^+) from two unique […] patient samples that were splicing factor mutated or unmutated were utilized, including sAML50261 and sAML2008-5.^14 For in vivo efficacy and therapeutic index studies, sAML CD34^+ cells, or normal human cord blood-derived or aged bone marrow-derived HSPCs (CD34^+), were transplanted (50,000-200,000 cells per mouse) intrahepatically into neonatal Rag2^−/−γc^−/− mice, or intravenously into adult NSG-SGM3 mice (Jackson Laboratories, Bar Harbor, ME). A subset of experiments was performed with normal aged bone marrow cells that were transduced with the lentiviral ADAR1 nanoluc-GFP reporter vector prior to transplant. For transplantation into adult mice, animals were irradiated with ^137Cs at a dose of 150 cGy 24 hr before IV transplantation. After engraftment levels reached >1% human CD45^+ hematopoietic cells in the peripheral blood, animals were distributed among treatment groups for treatment with Rebecsinib or vehicle control essentially as previously described, with an increased dosing regimen of twice weekly (versus once weekly in prior studies)^14 and an optimized in vivo formulation (2% w/w EtOH, 5% w/v KOLLIPHOR HS™ 15 in 0.9% saline). For animals that received transplants of cells transduced with the lentiviral ADAR1 nanoluc-GFP reporter, mice were imaged 15 weeks after transplant on the IVIS 200, as previously described.^79 Following treatment with Rebecsinib (five intravenous doses total over a two-week period), hematopoietic tissues (peripheral blood, bone marrow, spleens) were collected and analyzed by flow cytometry as previously described.^14 For splice isoform-specific qRT-PCR or RNA-seq analyses on cells from in vivo studies, human CD34^+ LSC from bone marrows and spleens of engrafted mice were isolated by magnetic bead separation (Miltenyi Biotec).\nAdditional aliquots of CD34+ cells from bone marrow and/or spleens of treated and control animals were used for serial transplantation assays after Rebecsinib treatment, including engraftment studies and overall survival assays. In a separate cohort of animals, mice were treated with Fedratinib for two weeks (twice daily oral delivery at 60 mg/kg) as a positive control for modulation of ADAR1 expression and activity.^8"}, "[3]": {"system": "ADAR1", "assay": "ADAR1 nanoluc-GFP reporter assay in primary high-risk MF CD34+ cells in stromal co-culture", "type": "cell-based, human", "settings": "primary high-risk MF HPCs, 72 hr; p<0.05 compared to DMSO", "excerpt": "(FIG. 27F) Luminescence-based quantification of ADAR1-dependent nanoluciferase signals in CD34^+ cells from primary, high-risk MF samples (*=untreated patient) after in vitro transduction with the ADAR1 nanoluc-GFP reporter and treatment with vehicle control (DMSO) or Rebecsinib (72 hr). Relative luciferase signals were normalized to cell viability for each condition. Data are represented as mean±SEM. p<0.05 compared to DMSO controls by pairwise t-test.\nFor nanoluciferase RNA editing activity assays, CD34^+ selected cells from primary high-risk MF samples were lentivirally transduced with ADAR1 nanoluc-GFP reporter for 48 hr, followed by treatment with DMSO or Rebecsinib in stromal co-culture for 72 hr. Luminescence reporter activity was measured in 10,000 cells by NANO-GLO LUCIFERASE ASSAY™ and values were normalized to cell viability. Cell viability was measured in 10,000 cells by CellTiter-Glo Luciferase Assay (Promega). A pilot in vivo reporter assay was also performed using TF-1a cells that were stably transduced with the ADAR1 nanoluc-GFP reporter. […] Cells were transplanted into neonatal Rag2^−/−γc^−/− mice (70,000 cells per mouse), and animals were imaged 4 weeks after transplant on the IVIS 200, as previously described.^7,9 Human cell engraftment was also confirmed in the peripheral blood in the same week as imaging."}, "[4]": {"system": "sAML PDX mouse models", "assay": "Survival of humanized sAML PDX mice", "type": "in vivo, human sAML cells in mice", "protocol": "Here, we established humanized mouse models using CD34^+ stem cells isolated from the peripheral blood of adult secondary AML (sAML) patients or bone marrow of normal-aged donors (63-79 years old).\nThe mouse models were screened by staining the PB of each mouse with a human CD45 mAb. Mice with a threshold of human CD45^+ cells >1% were included in the treatment cohort for Rebecchini. The dosing plan involved administering Rebecsinib at a dose of 10 mg/kg, intravenously, twice a week for 2 weeks, with a total of 5 doses. Single cells were isolated from the mouse organs, including PB, SP, and BM, and subjected to staining with human stem cell markers and lineage cell markers.\nThese mice were monitored for survival throughout the study until they reached the endpoint. Survival data were analyzed using a Log-rank test."}}, "data": [{"smiles": "CC[C@H](OC)[C@@H](C)[C@H]1O[C@@H]1[C@@H](O)[C@H](C)/C=C/C=C(\\C)[C@H]1OC(=O)C[C@H](O)CC[C@@](C)(O)[C@@H](OC(C)=O)/C=C/[C@@H]1C", "note": "[Rebecsinib]", "values": [{"measurement": "MF HPC viability", "setting": "[1]", "result": "decreased MF HPC viability"}, {"measurement": "ADAR-208 expression after serial transplantation compared with ADAR1p110", "setting": "[2]; CD34+ cells from serial transplant recipients, RNA-seq", "result": "sustained reductions in expression"}, {"measurement": "frequency of hematopoietic progenitors (CD34+CD38+Lin-) in spleens of serial transplant recipients", "setting": "[2]; sAML50261, 10 mg/kg intravenously twice weekly for two weeks (primary mice)", "result": "reduced frequency of hematopoietic progenitors"}, {"measurement": "LSC self-renewal on serial transplantation", "setting": "[2]; splicing factor mutated sAML (2008-5)", "result": "significantly reduced LSC self-renewal"}, {"measurement": "overall survival of serial transplant recipients", "setting": "[2]; splicing factor unmutated sAML 50261", "result": "significant improvement in overall survival"}, {"measurement": "ADAR1 RNA editing activity (nanoluciferase signal)", "setting": "[3]", "result": "significantly reduced ADAR1 RNA editing activity"}, {"measurement": "survival of sAML-engrafted mice", "setting": "[4]; compared to vehicle, fedratinib, and the combination of rebecsinib and fedratinib", "result": "survived significantly longer"}, {"measurement": "survival time versus single fedratinib", "setting": "[4]; single rebecsinib vs single fedratinib, p=0.016, Log-rank test", "result": "significantly longer"}, {"measurement": "survival time versus vehicle", "setting": "[4]; single rebecsinib vs vehicle, p=0.0003, Log-rank test", "result": "significantly longer"}]}]}
